Measured values as given in BindingDB's records for doi:10.1007/pl00005197 (Novartis Pharma, 1998).
Values joined by “and” are separate entries in the source; they are usually repeats but may differ in a detail not shown here. Equal values may be shown once. Numbered stars: 1 amine (or outer) side, 2 acyl side, 3 side chain; on linkers, the order of the positions; unused ones are H or OH. Bridge positions count the residues as written; N and C are the ends. Square brackets hold non-standard residues; d marks the D form. Peptide text beside a SMILES is read from it. * marks the point of attachment. d1Nal = N[C@H](Cc1cccc2ccccc12)C(=O)O; Asu = N[C@@H](CCCCCC(=O)O)C(=O)O; X1 = O=C(C(N[*:1])S[*:3])[*:2]; Ahp = NCCCCCCC(=O)O; Bn = c1ccc(C*)cc1; Mpa = O=C(O)CCS

How the values were obtained:
[1] = target: Somatostatin receptor type 1 (Homo sapiens, UniProt P30872)
[2] = target: Somatostatin receptor type 2 (Homo sapiens, UniProt P30874)
[3] = target: Somatostatin receptor type 5 (Homo sapiens, UniProt P35346)
[4] = target: Somatostatin receptor type 3 (Homo sapiens, UniProt P32745)
[5] = target: Somatostatin receptor type 4 (Homo sapiens, UniProt P31391)
Chain of Somatostatin receptor type 4 (P31391 whole entry): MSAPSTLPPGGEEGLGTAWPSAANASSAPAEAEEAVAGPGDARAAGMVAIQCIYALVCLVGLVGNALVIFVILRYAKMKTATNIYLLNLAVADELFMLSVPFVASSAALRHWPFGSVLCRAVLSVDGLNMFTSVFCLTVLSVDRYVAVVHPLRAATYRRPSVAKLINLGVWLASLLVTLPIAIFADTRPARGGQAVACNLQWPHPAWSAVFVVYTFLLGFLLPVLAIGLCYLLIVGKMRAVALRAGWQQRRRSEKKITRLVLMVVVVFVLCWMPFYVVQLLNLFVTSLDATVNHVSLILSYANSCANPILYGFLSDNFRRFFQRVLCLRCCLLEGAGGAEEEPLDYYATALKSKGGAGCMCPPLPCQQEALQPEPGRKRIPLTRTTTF

Chain of Somatostatin receptor type 1 (P30872 whole entry): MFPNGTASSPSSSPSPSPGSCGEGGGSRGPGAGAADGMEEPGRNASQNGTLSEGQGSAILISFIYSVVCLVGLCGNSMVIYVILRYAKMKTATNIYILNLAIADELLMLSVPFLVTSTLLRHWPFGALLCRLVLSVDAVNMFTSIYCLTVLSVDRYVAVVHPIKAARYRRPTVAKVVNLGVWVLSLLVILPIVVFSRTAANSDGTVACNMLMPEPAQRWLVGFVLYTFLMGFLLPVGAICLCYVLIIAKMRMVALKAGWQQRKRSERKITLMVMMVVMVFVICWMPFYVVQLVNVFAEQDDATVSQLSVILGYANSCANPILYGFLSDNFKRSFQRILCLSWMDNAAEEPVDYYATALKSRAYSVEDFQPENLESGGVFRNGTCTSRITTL
Chain of Somatostatin receptor type 5 (P35346 whole entry): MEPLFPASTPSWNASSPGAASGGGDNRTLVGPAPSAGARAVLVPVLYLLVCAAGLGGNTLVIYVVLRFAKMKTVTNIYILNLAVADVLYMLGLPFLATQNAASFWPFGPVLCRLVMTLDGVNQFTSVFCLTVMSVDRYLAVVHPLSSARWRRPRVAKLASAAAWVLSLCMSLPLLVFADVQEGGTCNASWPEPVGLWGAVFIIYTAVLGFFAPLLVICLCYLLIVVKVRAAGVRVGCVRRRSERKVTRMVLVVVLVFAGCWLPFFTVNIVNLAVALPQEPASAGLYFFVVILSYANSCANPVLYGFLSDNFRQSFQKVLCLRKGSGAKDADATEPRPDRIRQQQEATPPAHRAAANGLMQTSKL
Chain of Somatostatin receptor type 2 (P30874 whole entry): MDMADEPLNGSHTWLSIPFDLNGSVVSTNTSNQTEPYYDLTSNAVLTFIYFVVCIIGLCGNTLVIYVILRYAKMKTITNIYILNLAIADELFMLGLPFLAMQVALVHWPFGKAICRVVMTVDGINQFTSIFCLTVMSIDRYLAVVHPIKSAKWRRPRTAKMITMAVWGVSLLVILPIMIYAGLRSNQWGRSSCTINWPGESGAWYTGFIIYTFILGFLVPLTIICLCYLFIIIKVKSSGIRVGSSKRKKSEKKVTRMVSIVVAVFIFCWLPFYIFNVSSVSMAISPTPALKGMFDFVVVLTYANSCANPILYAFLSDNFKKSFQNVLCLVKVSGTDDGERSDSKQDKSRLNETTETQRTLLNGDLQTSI
Chain of Somatostatin receptor type 3 (P32745 whole entry): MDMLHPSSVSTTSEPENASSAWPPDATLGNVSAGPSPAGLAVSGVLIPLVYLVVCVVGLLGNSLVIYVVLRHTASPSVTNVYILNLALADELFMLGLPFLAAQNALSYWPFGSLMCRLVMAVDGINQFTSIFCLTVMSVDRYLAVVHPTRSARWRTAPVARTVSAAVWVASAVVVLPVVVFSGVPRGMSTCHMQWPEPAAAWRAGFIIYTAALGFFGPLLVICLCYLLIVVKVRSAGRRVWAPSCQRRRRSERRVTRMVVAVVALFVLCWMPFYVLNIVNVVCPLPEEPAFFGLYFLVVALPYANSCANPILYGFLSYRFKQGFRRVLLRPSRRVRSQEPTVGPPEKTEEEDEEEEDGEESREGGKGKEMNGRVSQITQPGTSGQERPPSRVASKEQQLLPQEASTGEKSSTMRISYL

| Compound | Ki [1] | Ki [2] | Ki [3] | Ki [4] | Ki [5] |
| --- | --- | --- | --- | --- | --- |
| CC(C)[C@H](NC(=O)[C@H](CCCCN)NC(=O)[C@@H](Cc1c[nH]c2ccccc12)NC(=O)[C@H](Cc1ccc(O)cc1)NC(=O)[C@H](Cc1ccccc1)NC(=O)[C@H](N)Cc1ccccc1)C(=O)N[C@@H](Cc1ccccc1)C(=O)N[C@H](Cc1cccc2ccccc12)C(N)=O [BIM 23056] (H-[dF]FY[dW]KVF[d1Nal]-NH2) | 245 nM and 347 nM | 589 nM | 209 nM | 126 nM and 83.2 nM | 67.6 nM and 339 nM |
| CC(C)[C@@H]1NC(=O)[C@H](CCCCN)NC(=O)[C@@H](Cc2c[nH]c3ccccc23)NC(=O)[C@H](Cc2ccc(O)cc2)NC(=O)CCSSC(C(=O)N[C@@H](Cc2ccccc2)C(N)=O)NC1=O (stereo not given in full) [CAS_117580-24-2] ([Mpa]Y[dW]KV[X1]F-NH2; disulfide 1-6) | 8710 nM and > 10000 nM | 21.9 nM | 2750 nM | 67.6 nM and 14.1 nM | 1050 nM and 2750 nM |
| C[C@@H](O)[C@@H]1NC(=O)[C@H](CCCCN)NC(=O)[C@@H](Cc2c[nH]c3ccccc23)NC(=O)[C@H](Cc2ccccc2)NC(=O)[C@@H]2CCCN2C(=O)[C@H](Cc2ccccc2)NC1=O (cyclo(PF[dW]KTF)) | 4790 nM and 4170 nM | 3.39 nM | 67.6 nM | 457 nM and 148 nM | 2450 nM and 8710 nM |
| CC(C)[C@@H]1NC(=O)[C@H](CCCCN)NC(=O)[C@@H](Cc2c[nH]c3ccccc23)NC(=O)[C@H](Cc2ccc(O)cc2)NC(=O)[C@@H](NC(=O)[C@H](N)Cc2ccc3ccccc3c2)CSSC[C@@H](C(=O)N[C@H](C(N)=O)[C@@H](C)O)NC1=O [3-(2-Naphtyl)-D-Ala-L-Cys(1)-L-Tyr-D-Trp-L-Lys-L-Val-L-Cys(1)-L-Thr-NH2] | 219 nM | 0.54 nM and 0.55 nM | – | 13.8 nM and 9.55 nM | – |
| C[C@@H](O)[C@H](NC(=O)[C@H](Cc1ccccc1)NC(=O)[C@@H](NC(=O)[C@H](CCCCN)NC(=O)[C@@H](Cc1c[nH]c2ccccc12)NC(=O)[C@H](Cc1ccccc1)NC(=O)[C@H](Cc1ccccc1)NC(=O)[C@H](N)Cc1ccccc1)[C@@H](C)O)C(N)=O [CAS_133073-82-2] (H-[dF]FF[dW]KTFT-NH2) | 4.27 nM and 2.4 nM | 3.16 nM | 35.5 nM | – | 2.34 nM and 6.31 nM |
| C[C@@H](O)[C@@H]1NC(=O)[C@H](Cc2ccc(O)cc2)NC(=O)[C@H]([C@@H](C)O)NC(=O)[C@H](CCCCN)NC(=O)[C@H](Cc2c[nH]c3ccccc23)NC(=O)[C@H](Cc2ccccc2)NC(=O)[C@H](Cc2ccccc2)NC(=O)[C@H](CC(N)=O)NC(=O)[C@H](CCCCN)NC(=O)CCCCC[C@@H](C(=O)O)NC(=O)[C@H](CO)NC1=O [CGP-23996] (KNFFWKTYTS[Asu]-OH; lactam N-11) | 4.68 nM and 4.9 nM | 1.15 nM | 214 nM | 1.51 nM and 0.52 nM | 1.7 nM and 2.14 nM |
| C[C@@H](O)[C@@H]1NC(=O)[C@H](CCCCN)NC(=O)[C@H](Cc2c[nH]c3ccccc23)NC(=O)[C@H](Cc2ccccc2)NC(=O)[C@H](Cc2ccccc2)NC(=O)[C@H](CC(N)=O)NC(=O)[C@H](CCCCN)NC(=O)[C@@H](NC(=O)[C@@H]2CCCN2)CSSC[C@@H](C(=O)N[C@@H](CCCCN)C(=O)O)NC(=O)[C@H](CO)NC(=O)[C@H](CO)NC(=O)[C@H](Cc2ccccc2)NC1=O [Cortistatin(1-14)] (H-PCKNFFWKTFSSCK-OH; disulfide 2-13) | – | 2.88 nM | 3.98 nM | 0.87 nM and 0.74 nM | 1.74 nM and 1.78 nM |
| CC(C)[C@@H]1NC(=O)[C@H](CCCCN)NC(=O)[C@@H](Cc2c[nH]c3ccccc23)NC(=O)[C@H](Cc2ccc(O)cc2)NC(=O)[C@@H](NC(=O)[C@H](N)Cc2ccccc2)CSSC[C@@H](C(=O)N[C@@H](Cc2c[nH]c3ccccc23)C(N)=O)NC1=O [CAS_71306] (H-[dF]CY[dW]KVCW-NH2; disulfide 2-7) | 83.2 nM and 110 nM | 0.45 nM and 0.25 nM | – | 42.7 nM and 12.3 nM | 56.2 nM and 275 nM |

Next, values leading:

| Ki [1] | Ki [2] | Ki [3] | Ki [4] | Ki [5] | Compound |
| --- | --- | --- | --- | --- | --- |
| > 10000 nM | – | 0.72 nM | – | – | CC(C)[C@@H]1NC(=O)[C@H](CCCCN)NC(=O)[C@@H](Cc2c[nH]c3ccccc23)NC(=O)[C@H](Cc2ccc(O)cc2)NC(=O)[C@H](C)N(C)C(=O)[C@H](Cc2ccccc2)NC1=O [seglitide] |
| 95.5 nM and 158 nM | 1820 nM | 955 nM | 589 nM and 83.2 nM | 331 nM and 851 nM | C[C@@H](OCc1ccccc1)[C@@H]1NC(=O)[C@H](CCCCN)NC(=O)[C@@H](Cc2c[nH]c3ccccc23)NC(=O)[C@H](Cc2ccccc2)NC(=O)CCCCCCNC1=O [c[Aha-Phe-D-Trp-Lys-Thr(Bzl)]] (cyclo([Ahp]F[dW]KT(Bn))) |
| 0.25 nM | 0.85 nM and 0.51 nM | 0.29 nM and 0.43 nM | 0.37 nM and 0.3 nM | 0.58 nM and 0.28 nM | CSCC[C@H](NC(=O)[C@H](CCCN=C(N)N)NC(=O)[C@@H](N)CC(=O)O)C(=O)N1CCC[C@H]1C(=O)N[C@H]1CSSC[C@@H](C(=O)N[C@@H](CCCCN)C(=O)O)NC(=O)[C@H](CO)NC(=O)[C@H](CO)NC(=O)[C@H](Cc2ccccc2)NC(=O)[C@H]([C@@H](C)O)NC(=O)[C@H](CCCCN)NC(=O)[C@H](Cc2c[nH]c3ccccc23)NC(=O)[C@H](Cc2ccccc2)NC(=O)[C@H](Cc2ccccc2)NC(=O)[C@H](CC(N)=O)NC(=O)[C@H](CCCN=C(N)N)NC1=O [Cortistatin] |
| 562 nM and 501 nM | – | – | 24 nM and 5.62 nM | 49 nM and 174 nM | C[C@@H](O)[C@@H]1NC(=O)[C@H](CCCCN)NC(=O)[C@@H](Cc2c[nH]c3ccccc23)NC(=O)[C@H](Cc2c[nH]c3ccccc23)NC(=O)[C@H](Cc2ccccc2)NC(=O)CCCCCCNC(=O)[C@H](Cc2ccccc2)NC1=O [L-362855] (cyclo([Ahp]FW[dW]KTF)) |
